From paper PMC8880588, “In-Silico Screening of Novel Synthesized Thienopyrimidines Targeting Fms Related Receptor Tyrosine Kinase-3 and Their In-Vitro Biological Evaluation” (Pharmaceuticals, 2022) come the findings set out here.

In general, IC50 refers to the concentration needed to halve the response being measured. In general, melting point refers to the temperature, or range, at which the solid turns liquid.

One data set concerns MCF-7. Kind of data set: MTT dose-response anti-proliferative assay, MCF-7. In kind it is cell-based, human. The source says: (§1) Doxorubicin was used as a positive reference for the comparison of anticancer activities. The results are tabulated as IC50 value in the μM range, Table 1.
(§2) Three cancer cell lines were used in the antiproliferative activities experiments, namely, breast cancer cell line (MCF-7) and human hepatoma cell line (HepG-2), and Colorectal cell line (HT-29). The source of cell lines is the health sciences research center-core lab- at princess Nou-rah bint Abdulrahman university. All cell lines were maintained in their optimum media (RPMI-1640 or DMEM) supplemented with 10% fetal bovine serum, 100 U/mL penicillin, and 100 μg/mL streptomycin and incubated in a humidified atmosphere at 37 °C with 5% CO2.
(§3) The MTT assay was used to evaluate the anti-proliferative effect of the synthesized compounds against three human cancer cell lines hepatocellular carcinoma (HepG-2), breast cancer (MCF-7) and Colorectal carcinoma (HT-29). For the preliminary screening, HT-29 cells were seeded in 96-well plates (Thermo Scientific, Waltham, MA, USA)(10^3 cells/well) and incubated for 24 h before the treatment. Then, cells were treated with two concentrations (10 and 100 µM) of the tested compounds for 72 h. After the exposure, MTT assay protocol was performed as described. After evaluation of the preliminary anticancer activity, the promising synthesized compounds (8, 9a, 9b, 10a, and 11) were selected and examined against three cell lines (HepG-2, MCF-7, and HT-29). Cells were exposed to serial concentration ([…]) of the selected compounds and dose–response curves were determined to calculate their IC50 values.

Data set [1] relates to protein kinases extracted from HT-29 cell line. Briefly: Kinase inhibition assessment, single dose, ADP-Glo assay. It counts as biochemical, human. The note with it: 20 μM single dose, total intracellular kinases from HT-29, 45 min. On the procedure: Inhibitory activity against kinases of the selected compounds was examined using homogeneous protein kinases extracted from HT-29 cell line. The screening assay was performed in a single dose concentration (20 μM) by using ADP-Glo assay (Promega, Madison, WI, USA).
Briefly, protein kinases were added into a 96-well plate followed by addition of the synthesized compounds at the tested dose (20 μM). After 45 min of exposure, kinase activity was assessed using a luminescent luciferase/luciferin reaction. Luminescence quantification was measured by using a Varioskan™ LUX multimode microplate reader (Thermo Scientific, Waltham, MA, USA). Kinase inhibition effect of tested compounds was expressed as the percentage of remaining kinase activity relative to vehicle kinase reaction.
For orientation: ADP-Glo turns the ADP formed in a reaction into a luminescent signal.

The next data set deals with HT-29. Briefly: MTT dose-response anti-proliferative assay, HT-29. It counts as cell-based. The note with it: Homo sapiens; HT-29, MTT.
Excerpt: as §1, §2, §3

In data set [2] the test system is normal colon epithelial cells (CCD 841 CoN). Kind of data set: Selectivity assay (MTT) on non-cancerous cells. In kind it is cell-based. On the procedure:
In an attempt to evaluate the anticancer activity of the compounds, selectivity assay was performed and compounds’ selectivity to malignant cells was determined, reflected by their selectivity index. The selectivity index (SI) was calculated by the ratio of the IC50 value of the selected compounds on normal colon epithelial cells (CCD 841 CoN) to the IC50 value of the compounds on cancer cells (HT-29). […] However, based on the designed strategy, this high selectivity towards cancer cells may be attributed to their ability to target oncogenic kinases.
Cells were plated in 96-well plates (10^3 cells/well), and after 24 h, the compounds in concentrations (0.1 to 100 μM) were incubated for 72 h. MTT procedure was then performed, the ratio of IC50 values of the compounds on non-cancerous cells (CCD 841 CoN) to the IC50 values of the compounds on cancer cells (HT-29) was determined as reported, [23, 24] using the following equation, SI = IC50 of normal cells/IC50 of cancer cells.

For the next data set, the system named is HT-29 cells. Kind of data set: Preliminary antiproliferative assessment (MTT) at 10 and 100 μM. The conditions noted are these: HT-29 cells, 10 and 100 μM, 72 h. In kind it is cell-based, human. The method, then: All synthesized compounds were subjected to preliminary antiproliferative assessment that was performed on HT-29 cells using concentrations 10 and 100 μM of synthesized compounds for 72 h and the percentage of cell viability was then calculated. […] Thus, all five compounds were further studied by a detailed dose–response relationship against three different cancerous cell lines HT-29, Hep-G2 and MCF-7.
as §2, §3

For a further data set, the target named is T1, FLT3 (Homo sapiens, UniProt P36888).
T1 construct: purchased BD Biosciences, San Diego, CA, USA
T1 sequence (P36888 27-993): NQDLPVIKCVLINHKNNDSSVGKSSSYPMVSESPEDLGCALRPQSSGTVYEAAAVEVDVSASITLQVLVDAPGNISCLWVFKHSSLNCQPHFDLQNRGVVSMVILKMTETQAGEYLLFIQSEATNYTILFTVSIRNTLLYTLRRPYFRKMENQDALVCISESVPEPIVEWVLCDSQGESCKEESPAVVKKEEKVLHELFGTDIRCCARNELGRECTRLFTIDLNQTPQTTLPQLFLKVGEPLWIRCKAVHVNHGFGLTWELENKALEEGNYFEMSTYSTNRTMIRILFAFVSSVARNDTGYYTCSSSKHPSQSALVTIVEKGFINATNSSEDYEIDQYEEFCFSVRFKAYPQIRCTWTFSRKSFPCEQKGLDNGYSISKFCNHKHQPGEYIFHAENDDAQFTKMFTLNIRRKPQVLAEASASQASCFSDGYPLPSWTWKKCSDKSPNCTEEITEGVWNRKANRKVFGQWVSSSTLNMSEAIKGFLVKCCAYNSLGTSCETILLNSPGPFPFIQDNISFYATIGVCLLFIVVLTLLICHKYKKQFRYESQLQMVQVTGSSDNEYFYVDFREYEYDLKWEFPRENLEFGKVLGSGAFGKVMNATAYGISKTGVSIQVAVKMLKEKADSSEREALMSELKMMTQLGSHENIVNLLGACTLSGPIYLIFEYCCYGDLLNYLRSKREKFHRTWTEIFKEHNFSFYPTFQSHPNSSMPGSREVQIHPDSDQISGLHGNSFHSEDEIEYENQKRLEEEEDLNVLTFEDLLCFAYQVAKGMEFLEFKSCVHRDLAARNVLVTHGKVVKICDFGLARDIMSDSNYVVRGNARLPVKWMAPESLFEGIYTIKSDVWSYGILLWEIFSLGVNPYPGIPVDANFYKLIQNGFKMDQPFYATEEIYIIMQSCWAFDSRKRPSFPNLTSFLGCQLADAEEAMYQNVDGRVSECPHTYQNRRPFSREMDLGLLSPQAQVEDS
Briefly: In-vitro FLT3 kinase enzyme inhibition assay (FLT3 Kinase Assay Kit). The conditions noted are these: FLT3 1.5 ng/µL, 45 min, mean ± SD, n = 3; read-out: FLT3 kinase inhibitory activity IC50. It counts as biochemical. On the procedure:
FLT3 Kinase Assay Kit (BD Biosciences, San Diego, CA, USA) was used to determine the inhibitory selectivity of the selected compounds towards the FLT3 enzyme. briefly, serial dilution of the selected compounds was incubated with FLT3 (1.5 ng/µL) for 45 min in a kinase reaction buffer. The FLT3 enzyme reaction was halted and measured by quantifying the amount of ADP produced during the enzyme reaction. Luminescence values were measured by a Varioskan™ LUX multimode microplate reader (Thermo Scientific, Waltham, MA, USA). IC50 was calculated with nonlinear regression compared with untreated reaction using Prism version 8.4.3 (GraphPad).

A further data set deals with HepG-2. Briefly: MTT dose-response anti-proliferative assay, HepG-2. In kind it is cell-based. The note with it: Homo sapiens, HepG2; HepG-2, MTT.
Excerpt: as §1, §2, §3

`CCOC(=O)c1c(NC(=S)Nc2ccccc2)sc2c1CCCC2` [Compound 11, Ethyl-2-(3-phenylthioureido)-5,6,7,8-tetrahydrobenzo[b]thiophene-3-carboxylate]: the melting point is 170 to 172 °C. The IC50 in the data set with MCF-7 (Homo sapiens, MCF7, MCF-7, MTT) came out at 7.53 ± 0.07 µM. Further, in the data set with MCF-7 (MCF-7, MTT), it took 7.537 ± 0.07 µM to reach half-maximal inhibition (IC50). In data set [1], this compound showed a kinase inhibition of 79.2%. Besides, half-maximal inhibition in the data set on HT-29 (IC50) required 1.78 ± 0.6 µM. Also, the IC50 in data set [2] (Homo sapiens, CCD 841 CoN, 72 h, MTT, read-out: IC50 of Non-Cancer Cells CCD 841) amounted to 178 ± 20.4 µM. Also, in data set [2] (ratio normal CCD 841 / cancer HT-29, 72 h), the “Selectivity Index (SI) (IC50 of CCD 841/IC50 of HT29)” value is 99.7. The “growth inhibitory activities against HT-29 cells (preliminary assay)” value in the data set on HT-29 cells is on record as “moderate to significant”. Also, the IC50 at FLT3 was 40 ± 5.5 µM. Also, in the data set with HepG-2, 16.4 ± 5.7 µM corresponded to half-maximal inhibition (IC50).
